Data from patent US4973668A, “Variants of alpha 1-antitrypsin which are useful, in particular, as kallikrein inhibitors” (Transgene S.A., priority 1986, dated 1990).
Entries after “also recorded” stand apart in the source; their conditions may differ.

Experiments:
human plasma kallikrein = assay: antikallikrein activity, residual hydrolysis of chromozyme PK at 410 nm; type: biochemical
Protocol: The antikallikrein activity is assessed by measuring at 410 nm the residual extent of hydrolysis of chromosyme PK (benzoyl-Pro-Pre-Arg-4-nitroanilide acetate, Boehringer Mannheim).
2.6 pmol of human plasma kallikrein are preincubated at 37° C. with an increasing amount of inhibitor in 0.1 M Na phosphate/0.15 M NaCl buffer. After 30 minutes, the reaction is stopped by adding […] of substrate (final concentration 0.5 mM) and the residual enzyme activity is determined.

[1] = system: human neutrophil elastase; assay: inhibition of human neutrophil elastase by E. coli extracts; type: biochemical; conditions: clarified sonicated E. coli extracts; FIG. 1; compared with normal (Met358)alpha1-AT
Protocol: Clarified sonicated extracts were prepared from induced cultures of E. coli TGE900 containing one of the above three plasmids.
Aliquots of extracts are tested for their capacity to inhibit human neutrophil elastase (this technique having already been described).

human thrombin [2] = assay: thrombin inhibition curves; type: biochemical; conditions: FIG. 3; comparison with alpha1-AT(Arg358)
kallikrein = conditions: ratio versus C1 inhibitor; cited from earlier work
factor XIIF = conditions: ratio versus C1 inhibitor; cited from earlier work
human thrombin [3] = conditions: general statement on the earlier variant; cited from earlier work

For “(Ala^357, Arg^358)alpha1 -AT: variant of human alpha1-antitrypsin, Pro357 replaced by Ala and Met358 by Arg, expressed in E. coli from plasmid pTG1946”, the inhibition of kallikrein (human plasma kallikrein; 2.6 pmol kallikrein, 37° C., 30 minutes preincubation, FIG. 2) was “very much improved”, the inhibition of kallikrein (human plasma kallikrein; 2.6 pmol kallikrein, 37° C., 30 minutes preincubation; FIG. 2; Arg^358) alpha1 -AT) was “capable of rapidly inhibiting” and the “inhibition of neutrophil elastase” value [1] was “incapable of inhibiting”. For the same substance, the inhibition of thrombin (human thrombin [2]) was “very weak; also recorded: only very weakly”.

In the case of “(Arg^358)alpha1 -AT: human alpha1-antitrypsin variant with Met358 replaced by arginine, described in WO 86/00,337; plasmid pTG1900”, the “activity in inactivation of kallikrein relative to C1 inhibitor” value (kallikrein) is given as 4.1 times, the “activity in inactivation of factor XIIF relative to C1 inhibitor” value (factor XIIF) is given as 11.5 times and the antithrombin activity (human thrombin [3]) is given as “very substantial”.
